Laboratory results from patent publication EP0169787B1, “Use of oligonucleotides bonded to an intercalating agent as drugs” (priority 1984, dated 1986).
Like-named read-outs stand apart in the source and are kept apart here.

How the values were obtained:
[1] = system: virus SV40; experiment: Inhibition of SV40 multiplication (cytopathogenic effect) in CV1 cell cultures; format: cell-based; details: 3 jours, témoins 75
[2] = system: A/Victoria (H3N2); format: cell-based; details: cellules MDCK; for Pourcentage de destruction cellulaire Cultures infectées (effet cytopathogène) par A/Victoria (H3N2): 3 jours
[3] = system: cellules CV1; format: cell-based, singe
Method: La dilution de virus dans un tampon phosphate isotonique a été choisie de façon […] cultures témoins environ 75% de destruction cellulaire (75% d'effet cytopathogène) après 3 jours d'incubation. Après 1 heure de contact à 37°C, l'inocu- lum […] du même milieu contenant ou non les produits à étudier sont ajoutés. […] Des cultures de cellules non infectées par le virus et traitées avec les produits ont été aussi examinées pour […] cytotoxiques éventuels. Les pourcentages de destruction cellulaire dans les cultures infectées (effet cytopathogène) et dans les cultures non infectées (effet cytotoxique des produits) sont indiqués dans le tableau V.

COc1ccc2nc3cc(Cl)ccc3c(NCCCCCO)c2c1 [Acr(CH2)5OH, méthoxy-2 chloro-6 (ω-hydroxypentyl-amino)-9 acridine]
Pourcentage de destruction cellulaire Cultures infectées par SV40 (effet cytopathogène) ([1]; 0,5 µg/ml): 50% | Pourcentage de destruction cellulaire Cultures infectées par SV40 (effet cytopathogène) ([1]; 0,5 µg/ml, listed as Acr(CH2)50H): n'exerce pas d'effet inhibiteur significatif | Pourcentage de destruction cellulaire Cultures infectées par SV40 (effet cytopathogène) ([1]; 0,25 µg/ml): 75% | Pourcentage de destruction cellulaire Cultures infectées par SV40 (effet cytopathogène) ([1]; 0,25 µg/ml, listed as Acr(CH2)50H): n'exerce pas d'effet inhibiteur significatif | Pourcentage de destruction cellulaire Cultures infectées par SV40 (effet cytopathogène) ([1]; 1,0 µg/ml): 75% | Pourcentage de destruction cellulaire Cultures infectées par SV40 (effet cytopathogène) ([1]; 2,0 µg/ml): 100% | Pourcentage de destruction cellulaire Cultures infectées (effet cytopathogène) par A/Victoria (H3N2) ([2]; 0,5 µg/ml): 100% | Pourcentage de destruction cellulaire Cultures infectées (effet cytopathogène) par A/Victoria (H3N2) ([2]; 0,25 µg/ml): 100% | Pourcentage de destruction cellulaire Cultures infectées (effet cytopathogène) par A/Victoria (H3N2) ([2]; 1,0 µg/ml): 100% | effet inhibiteur de la multiplication du virus grippal A/Victoria (H3N2) ([2]; result in words): dépourvu d'activité

COc1ccc2nc3cc(Cl)ccc3c(NCCCCCCO)c2c1 [HO(CH2)6 Z", méthoxy-2-chloro-6(ω-hydroxyhexylamino)-9 acridine]
effet cytotoxique / toxicité vis-à-vis des cellules saines [3]: trop important
